The nature of this series: Microcapsule fragrance loading quantification via GC. In kind it is physicochemical. Particulars: for Composition 2 (encapsulate wt %): level of the fragrance material in microcapsules of Example 21B; for Composition 2 (oil wt %) / Composition 1 (oil wt %): share of the fragrance material in the encapsulated oil; for Composition 2 (oil wt %): Example 21B; for Composition 1 (encapsulate wt %): level of the fragrance material in microcapsules of Example 21A; for Composition 1 (oil wt %): Example 21A.

Source text: Fragrance levels in the microcapsule can be determined by extraction of the fragrance and injection into a GC column. An Agilent 8890 gas chromatograph is used, equipped with a HP-5MS column, and using hydrogen as carrier gas. Quantification is achieved by use of a calibration curve for the given fragrance material diluted in ethanol.
To measure the total level of fragrance in an encapsulate sample, the capsules must first be broken by sonication, for example 1.0 g of encapsulate in 2.0 g of DI water with a Bandelin Sonopuls HD4200 ultrasonicator, equipped with probe TS104 for 1 minute at 30% amplitude (around 1.5 KJ in total). A few drops of aqueous potassium hydroxide solution (10% wt) are added before sonication to raise the pH of the solution above 11. While sonicating, ice is used to keep the temperature below room temperature (20° C.) to avoid any loss of fragrance through evaporation. A microscope is used to check visually if the capsules are fully broken. If not, sonication is repeated. Ethanol is added to the mixture, which is then mixed and centrifuged. The supernatant is collected and retained as the first extraction. The residue is mixed with ethanol again and centrifuged. The supernatant is collected and added to the first extraction. This is then diluted as appropriate and injected into the GC for analysis.
To measure the level of free fragrance in the sample (i.e. the level of un-encapsulated fragrance), the encapsulate slurry is well mixed in DI water and filtered using a sterile cell strainer (40 μm Nylon mesh). The filtrate is diluted with ethanol and injected into the GC for analysis.
The encapsulated fragrance level is the difference between the total fragrance and the free fragrance levels.

Turning to `O=C(OCc1ccccc1)c1ccccc1O` [Benzyl salicylate], the “Composition 2 (encapsulate wt %)” value is reported as 0.66 wt % and the “Composition 2 (oil wt %)” value is recorded as 22.5 wt %.
In the case of `OC/C=C/c1ccccc1` [Cinnamic alcohol], the “Composition 1 (encapsulate wt %)” value was determined as 0.01 wt % and the “Composition 1 (oil wt %)” value is reported as 0.5 wt %.
`C/C=C/C(=O)C1C(C)C=CCC1(C)C` (centres unmarked) [Delta damascone]: the “Composition 1 (encapsulate wt %)” value is 0.54 wt %, the “Composition 2 (encapsulate wt %)” value amounted to 0.53 wt %, the “Composition 1 (oil wt %)” value worked out at 29.5 wt % and the “Composition 2 (oil wt %)” value was 18.1 wt %.
For the molecule `C=C(C)[C@H]1CC=C(C)CC1` [Dipentene], the “Composition 2 (encapsulate wt %)” value amounted to 0.63 wt % and the “Composition 2 (oil wt %)” value was 21.5 wt %.
For `c1ccc(Oc2ccccc2)cc1` [Diphenyl oxide], in that order: 0.59 wt % and 20.1 wt %.
Turning to `CC(C)=CCC/C(C)=C/CO` [Geraniol], the “Composition 1 (encapsulate wt %)” value is 0.11 wt % and the “Composition 1 (oil wt %)” value was determined as 6.0 wt %.
`CCC=C(C)C(O)CCCCC` (centres unmarked) [Undecavertol]: the “Composition 1 (encapsulate wt %)” value was 0.39 wt % and the “Composition 1 (oil wt %)” value came out at 21.3 wt %.
For `CCCCCCCCCCCC#N` [dodecane nitrile], in that order: 0.79 wt % and 43.2 wt %.
Turning to “Ortho tertiary butyl cyclo hexyl acetate”, the “Composition 2 (encapsulate wt %)” value amounted to 0.52 wt % and the “Composition 2 (oil wt %)” value turned out to be 17.7 wt %.
